Data on three compounds can be found in patent US12723063B2, “GIPR-agonist compounds” (Eli Lilly and Company, priority 2019, dated 2026).

In general, CL/F refers to clearance divided by bioavailability, as obtained after extravascular dosing. A word on the Tmax: it is the time from dosing to the highest level. As a reminder, the half-life is the time in which the quantity being followed falls by half. Low readings indicate fast loss, high ones slow loss. In general, pKi refers to the Ki on a negative log10 scale, so that one unit is a factor of ten.

pKi: −log10 of the molar value. Some results are limits rather than exact numbers.

Series [1] in a line: Pharmacokinetics in male cynomolgus monkeys, single subcutaneous administration. Type of series: in vivo, cynomolgus monkey. The conditions noted are these: 50 nmol/kg single SC, mean n = 2; for CL/F / Tmax / half-life: cynomolgus monkey, plasma. As for the experimental part: The pharmacokinetics of select Examples are evaluated following a single subcutaneous administration of 50 nmol/kg to male cynomolgus monkeys. Blood samples are collected over 504 hours and resulting individual plasma concentrations are used to calculate pharmacokinetic parameters. Peptide plasma (K3 EDTA) concentrations are determined using a qualified LC/MS method that measured the intact mass of the compound. Each peptide and an analog as an internal standard are extracted from 100% cynomolgus monkey plasma using a protein precipitation method. Instruments are combined for LC/MS detection.

The test system of series [2] is CD4+ T cells (CD8+ T cell-depleted PBMCs). The series can be described thus: CD4+ T cell proliferation assay (immunogenicity assessment). The format is cell-based, human. As to conditions: 0.33 μM, 7 days, 10 healthy donors; positive response CDI>2.5. As for the experimental part: Protein therapeutics that induce less than 30% positive response in the CD4+ T cell proliferation assay are associated with a low risk of immunogenicity. Briefly, to assess the propensity for a clinical immunogenic response to the compounds of Examples 1, 2, 3, 5, and 6, CD8+ T cell-depleted peripheral blood mononuclear cells (PBMCs) are prepared and labeled with carboxyfluorescein diacetate succinimidyl ester (CFSE; Invitrogen) from a cohort of 10 healthy donors with diverse human leukocyte antigen (HLA) class II haplotypes. Each donor is tested in triplicate with 2.0 mL media control, keyhole limpet hemocyanin (KLH: 0.33 μM), and the compounds of Examples 1, 2, 3, 5, and 6 (0.33 μM). Cultures are incubated for 7 days at 37° C. with 5% CO2. On day 7, samples are analyzed by flow cytometry using a BD LSR II Fortessa (Becton Dickinson; Franklin Lakes, NJ), equipped with a high throughput sampler (HTS). Data is analyzed using FlowJo® Software (FlowJo, LLC/TreeStar; Ashland, OR).
• Cell Division Index (“CDI”): proportion of divided CD4+ T cells to the total number of CD4+ T cells in stimulated versus unstimulated samples.

Series [3] can be described thus: Pharmacokinetics in male Sprague Dawley rats, single subcutaneous administration. Type of series: in vivo, Sprague Dawley rat. The conditions noted are these: 100 nmol/kg single SC, mean n = 3 (example 3 n = 1); for CL/F / Tmax / half-life: rat, plasma. As for the experimental part: The pharmacokinetics of select Examples are evaluated following a single subcutaneous (SC) administration of 100 nmol/kg to male Sprague Dawley rats. Blood samples are collected over 168 hours following SC administration. Pharmacokinetic parameters are calculated using individual plasma concentrations. A qualified LC/MS method that measures the intact mass of the Example is used to determine plasma (K3 EDTA) concentrations. Each peptide and an analog as an internal standard are extracted from 100% rat plasma using a protein precipitation method. Instruments are combined for LC/MS detection. Mean pharmacokinetic parameters for the Examples are shown in […]

The target in a further series is T1, human GLP-1R (Homo sapiens, UniProt P43220).
T1 construct: expressed in transfected cells; crude membranes
T1 sequence (P43220 24-463): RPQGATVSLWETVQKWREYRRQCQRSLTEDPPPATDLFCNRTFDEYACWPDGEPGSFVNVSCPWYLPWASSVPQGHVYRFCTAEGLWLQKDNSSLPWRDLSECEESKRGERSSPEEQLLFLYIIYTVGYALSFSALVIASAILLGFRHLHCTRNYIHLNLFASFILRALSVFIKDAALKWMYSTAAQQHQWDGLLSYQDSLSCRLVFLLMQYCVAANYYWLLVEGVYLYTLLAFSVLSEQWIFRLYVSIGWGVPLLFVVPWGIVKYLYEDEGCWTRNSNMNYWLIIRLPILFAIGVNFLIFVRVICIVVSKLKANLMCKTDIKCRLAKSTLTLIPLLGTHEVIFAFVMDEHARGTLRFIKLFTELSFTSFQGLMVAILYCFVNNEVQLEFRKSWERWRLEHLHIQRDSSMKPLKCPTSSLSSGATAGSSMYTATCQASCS
The series can be described thus: [125I]-GLP-1 binding, SPA with WGA beads, 0.1% bacitracin. The conditions noted are these: geometric mean, read-out: hGLP1R Ki. In short, it runs like this:
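Binding buffer was 25 mM HEPES pH 7.4 with 2.5 mM CaCl2, 1 mM MgCl2, 0.1% (w/v) bacitracin, 0.003% Tween-20 and EDTA-free protease inhibitors. Four-parameter regression gave IC50, converted to Ki (geometric mean, SEM, n independent days).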

With `CC[C@H](C)[C@H](NC(=O)[C@H](Cc1ccccc1)NC(=O)[C@@H](NC(=O)CNC(=O)[C@H](CCC(=O)O)NC(=O)C(C)(C)NC(=O)[C@@H](N)Cc1ccc(O)cc1)[C@@H](C)O)C(=O)N[C@@H](CO)C(=O)N[C@@H](CC(=O)O)C(=O)N[C@@H](Cc1ccc(O)cc1)C(=O)N[C@@H](CO)C(=O)N[C@H](C(=O)N[C@@](C)(CC(C)C)C(=O)N[C@@H](CC(C)C)C(=O)N[C@@H](CC(=O)O)C(=O)N[C@@H](CCCCN)C(=O)N[C@@H](CCCCNC(=O)COCCOCCNC(=O)COCCOCCNC(=O)CC[C@H](NC(=O)CCCCCCCCCCCCCCCCCCC(=O)O)C(=O)O)C(=O)N[C@@H](Cc1c[nH]cn1)C(=O)N[C@@H](CCC(N)=O)C(=O)NC(C)(C)C(=O)N[C@@H](CC(=O)O)C(=O)N[C@@H](Cc1ccccc1)C(=O)N[C@H](C(=O)N[C@@H](CCC(=O)O)C(=O)N[C@@H](Cc1ccncc1)C(=O)N[C@@H](CC(C)C)C(=O)N[C@@H](CC(C)C)C(=O)N[C@@H](CCC(=O)O)C(=O)N[C@@H](C)C(=O)NCC(=O)N1CCC[C@H]1C(=O)N[C@@H](CO)C(=O)N[C@@H](CO)C(=O)NCC(=O)N[C@@H](C)C(=O)N1CCC[C@H]1C(=O)N1CCC[C@H]1C(=O)N1CCC[C@H]1C(=O)N[C@@H](CO)C(N)=O)C(C)C)[C@@H](C)CC` [Example 3], in series [1], the AUCInf/Dose is listed as 1764 hr*kg*nmol/L/nmol, the Cmax/Dose is 12.1 kg*nmol/L/nmol, the CL/F is 0.57 mL/h/kg and the time of peak concentration (Tmax) was 60 h. This compound gave a half-life in series [1] of 88.8 h. In addition, the “% Donor Response (n = 10)” value in series [2] is recorded as 0%. In addition, in series [3], the AUCInf/Dose came to 130 hr*kg*nmol/L/nmol, the Cmax/Dose is 3.03 kg*nmol/L/nmol, the apparent clearance (CL/F) was 7.67 mL/h/kg and the Tmax was 12 h. The half-life in series [3] was 24.9 h. Further, the pKi at human GLP-1R is 6.42.

For `CC[C@H](C)[C@H](NC(=O)[C@H](CCCCN)NC(=O)[C@H](CC(=O)O)NC(=O)[C@H](CC(C)C)NC(=O)[C@](C)(CC(C)C)NC(=O)[C@@H](NC(=O)[C@H](CO)NC(=O)[C@H](Cc1ccc(O)cc1)NC(=O)[C@H](CC(=O)O)NC(=O)[C@H](CO)NC(=O)[C@@H](NC(=O)[C@H](Cc1ccccc1)NC(=O)[C@@H](NC(=O)CNC(=O)[C@H](CCC(=O)O)NC(=O)C(C)(C)NC(=O)[C@@H](N)Cc1ccc(O)cc1)[C@@H](C)O)[C@@H](C)CC)[C@@H](C)CC)C(=O)N[C@@H](Cc1c[nH]cn1)C(=O)N[C@@H](CCC(N)=O)C(=O)NC(C)(C)C(=O)N[C@@H](CC(=O)O)C(=O)N[C@@H](Cc1ccccc1)C(=O)N[C@H](C(=O)N[C@@H](CCC(=O)O)C(=O)N[C@@H](Cc1ccc(O)cc1)C(=O)N[C@@H](CCCCNC(=O)COCCOCCNC(=O)COCCOCCNC(=O)CC[C@H](NC(=O)CCCCCCCCCCCCCCCCCCC(=O)O)C(=O)O)C(=O)N[C@@H](CC(C)C)C(=O)N[C@@H](CCC(=O)O)C(=O)NCC(=O)NCC(=O)N1CCC[C@H]1C(=O)N[C@@H](CO)C(=O)N[C@@H](CO)C(=O)NCC(=O)N[C@@H](C)C(=O)N1CCC[C@H]1C(=O)N1CCC[C@H]1C(=O)N1CCC[C@H]1C(=O)N[C@@H](CO)C(N)=O)C(C)C` [Example 5], in series [1], the AUCInf/Dose came to 2262 hr*kg*nmol/L/nmol, the Cmax/Dose is on record as 12.0 kg*nmol/L/nmol, the apparent clearance (CL/F) is 0.44 mL/h/kg and the time of peak concentration (Tmax) turned out to be 120 h. Further, the half-life in series [1] was 128 h. Also, in series [2], the “% Donor Response (n = 10)” value came to 0%. Also, in series [3], the AUCInf/Dose was 239 hr*kg*nmol/L/nmol, the Cmax/Dose amounted to 4.61 kg*nmol/L/nmol, the CL/F was 4.2 mL/h/kg and the time to peak (Tmax) came out at 24 h. The compound also had a half-life in series [3] of 27.1 h. Besides, the pKi on human GLP-1R was below 6.04.

Take `CC[C@H](C)[C@H](NC(=O)[C@H](CCCN)NC(=O)[C@H](CC(=O)O)NC(=O)[C@H](CC(C)C)NC(=O)[C@](C)(CC(C)C)NC(=O)[C@@H](NC(=O)[C@H](CO)NC(=O)[C@H](Cc1ccc(O)cc1)NC(=O)[C@H](CC(=O)O)NC(=O)[C@H](CO)NC(=O)[C@@H](NC(=O)[C@H](Cc1ccccc1)NC(=O)[C@@H](NC(=O)CNC(=O)[C@H](CCC(=O)O)NC(=O)C(C)(C)NC(=O)[C@@H](N)Cc1ccc(O)cc1)[C@@H](C)O)[C@@H](C)CC)[C@@H](C)CC)C(=O)N[C@@H](Cc1c[nH]cn1)C(=O)N[C@@H](CCC(N)=O)C(=O)NC(C)(C)C(=O)N[C@@H](CC(=O)O)C(=O)N[C@@H](Cc1ccccc1)C(=O)N[C@H](C(=O)N[C@@H](CCC(=O)O)C(=O)N[C@@H](Cc1ccc(O)cc1)C(=O)N[C@@H](CCCCNC(=O)COCCOCCNC(=O)COCCOCCNC(=O)CC[C@H](NC(=O)CCCCCCCCCCCCCCCCCCC(=O)O)C(=O)O)C(=O)N[C@@H](CC(C)C)C(=O)N[C@@H](CCC(=O)O)C(=O)NCC(=O)NCC(=O)N1CCC[C@H]1C(=O)N[C@@H](CO)C(=O)N[C@@H](CO)C(=O)NCC(=O)N[C@@H](C)C(=O)N1CCC[C@H]1C(=O)N1CCC[C@H]1C(=O)N1CCC[C@H]1C(=O)N[C@@H](CO)C(N)=O)C(C)C` [Example 6]: in series [1], the AUCInf/Dose is 1382 hr*kg*nmol/L/nmol, the Cmax/Dose came to 7.83 kg*nmol/L/nmol, the apparent clearance (CL/F) was 0.77 mL/h/kg and the Tmax worked out at 6 h. In addition, the half-life in series [1] is 129 h. The “% Donor Response (n = 10)” value in series [2] came to 0%. In series [3], this compound showed an AUCInf/Dose of 271 hr*kg*nmol/L/nmol, a Cmax/Dose of 4.07 kg*nmol/L/nmol, an apparent clearance (CL/F) of 3.69 mL/h/kg and a half-life of 34.8 h. In addition, the pKi on human GLP-1R was 6.24.
